Measurements as given in patent publication US9078440B2, “6-(2-aminophenyl)picolinates and their use as herbicides” (BAYER INTELLECTUAL PROPERTY GMBH, priority 2010, dated 2015).

Assays:
Type in all cases: in vivo
[1] = system: Polygonum (Fallopia) convolvulus; test: Post-emergence herbicidal effect, greenhouse pot test; conditions: 1.28 kg or less active substance per hectare, scored visually after about 3 weeks
Method: (§1) Post-emergence herbicidal effect and crop plant compatibility
(§2) Seeds of monocotyledonous and dicotyledonous weed and crop plants are placed in sandy loam in wood-fibre pots, covered with soil and cultivated in a greenhouse under good growth conditions. 2 to 3 weeks after sowing, the test plants are treated at the one-leaf stage. The inventive compounds, formulated in the form of wettable powders (WP) or as emulsion concentrates (EC), are then sprayed onto the green parts of the plants as an aqueous suspension or emulsion at a water application rate of 600 to 800 I/ha (converted) with addition of 0.2% by weight of wetting agent. After the test plants have been left to stand in the greenhouse under optimal growth conditions for about 3 weeks, the action of the formulations is scored visually in comparison to untreated controls (herbicidal action in percent (%): 100% action=the plants have died, 0% action=like control plants).

Viola tricolor [2] = test: as above; conditions: 1.28 kg or less active substance per hectare, scored visually after about 3 weeks
Method: as §1, §2

Matricaria inodora = test: as above; conditions: 1.28 kg or less active substance per hectare, scored visually after about 3 weeks
Method: as §1, §2

[3] = system: Pharbitis (Ipomoea) purpurea; test: as above; conditions: 1.28 kg or less active substance per hectare, scored visually after about 3 weeks
Method: as §1, §2

Veronica persica = test: as above; conditions: 1.28 kg or less active substance per hectare, scored visually after about 3 weeks
Method: as §1, §2

Amaranthus retroflexus [4] = test: as above; conditions: 1.28 kg or less active substance per hectare, scored visually after about 3 weeks
Method: as §1, §2

Stellaria media = test: as above; conditions: 1.28 kg or less active substance per hectare, scored visually after about 3 weeks
Method: as §1, §2

[5] = system: Polygonum (Fallopia) convolvulus; test: Pre-emergence herbicidal effect, greenhouse pot test; conditions: 1.28 kg of active substance per hectare, assessed visually after 3 weeks
Description: (§3) Pre-emergence Herbicidal Effect and Crop Plant Compatibility
(§4) Seeds of monocotyledonous and dicotyledonous weed plants and crop plants are placed in wood-fibre pots in sandy loam and covered with soil. The inventive compounds, formulated in the form of wettable powders (WP) or as emulsion concentrates (EC), are then applied to the surface of the covering soil as an aqueous suspension or emulsion at a water application rate of 600 to 800 I/ha (converted) with addition of 0.2% wetting agent. After the treatment, the pots are placed in a greenhouse and kept under good growth conditions for the test plants. The damage to the test plants is assessed visually after a test period of 3 weeks by comparison with untreated controls (herbicidal activity in percent (%): 100% action=the plants have died, 0% action=like control plants).

Viola tricolor [6] = test: as above; conditions: 1.28 kg of active substance per hectare, assessed visually after 3 weeks
Description: as §3, §4

Amaranthus retroflexus [7] = test: as above; conditions: 1.28 kg of active substance per hectare, assessed visually after 3 weeks
Description: as §3, §4

Measured: herbicidal action

COC(=O)c1nc(-c2ccc(Cl)cc2N)cc(N)c1Cl [compound 58, methyl 4-amino-6-(2-amino-4-chlorophenyl)-3-chloropyridine-2-carboxylate]
at least 90%: all assays above
